Read-outs that look alike come from different tables or passages of the source. Marks after values point to notes of the source that are not given here.

For `CC(CF)(CF)C(O)(Cc1ccnc(Cl)c1)Cn1cncn1` (racemic) [XXI-41], for the setting “pH 2.7”, the LogP is 1.66^[a].

For the compound `OC(Cc1cccc(Cl)c1)(Cc1ccnc(Cl)c1)Cn1cncn1` (racemic) [XXI-42], the LogP (pH 2.7) is 2.42^[a].

In the case of `OC(Cc1ccnc(Cl)c1)(Cn1cncn1)c1ccc(Cl)nc1` (racemic) [XXI-43], the LogP (pH 2.7) is 1.38^[a].

On to `OC(Cc1ccnc(Cl)c1)(Cn1cncn1)C1(Cl)CC1` (racemic) [XXI-44], for which, where the note is “pH 2.7”, the LogP was 1.76^[a].

Regarding `OC(Cc1cc(Cl)ncc1F)(Cn1cncn1)C1(Cl)CC1` (racemic) [XXI-45], the LogP (pH 2.7) is 2.06^[a].

On to `OC(Cc1cc(Cl)ncc1F)(Cn1cncn1)C1(F)CC1` (racemic) [XXI-46], for which, where the note is “pH 2.7”, the LogP is 1.66^[a].

Consider `OC(Cc1cc(Cl)ncc1F)(Cn1cncn1)c1ccc(Cl)nc1` (racemic) [XXI-47], for which the LogP (pH 2.7) was 1.60^[a].

Turning to `OC(Cc1cc(Cl)ncc1F)(Cn1cncn1)c1cccnc1Cl` (racemic) [XXI-48], under “pH 2.7”, the LogP was 1.57^[a].

As for `CC(CF)(CF)C(O)(Cc1cc(Cl)ncc1F)Cn1cncn1` (racemic) [XXI-49], the LogP (pH 2.7) was 1.89^[a].

For the compound `OC(Cc1ccnnc1Cl)(Cn1cncn1)C1(Cl)CC1` (racemic) [XXI-50], the LogP (pH 2.7) is 1.31^[a].

For `OC(Cc1cc(Cl)nnc1Cl)(Cn1cncn1)C1(Cl)CC1` (racemic) [XXI-51], the LogP (pH 2.7) was 1.92^[a].

In the case of `OC(Cc1cc(Cl)ccn1)(Cn1cncn1)C1(Cl)CC1` (racemic) [XXI-52], the LogP (pH 2.7) is 2.02^[a].

Consider `Cc1cccc(CC(O)(Cn2cncn2)C2(Cl)CC2)n1` (racemic) [XXI-53], for which, for the setting “pH 2.7”, the LogP was 0.52^[a].

For the compound `CC1(C(O)(Cc2ccncc2Cl)Cn2cncn2)CC1` (racemic) [XXI-54], where the note is “pH 2.7”, the LogP was 1.57^[a].

Take `OC(Cc1ccncn1)(Cn1cncn1)C1(Cl)CC1` (racemic) [XXI-55]: where the note is “pH 2.7”, the LogP is 1.10^[a].

Turning to `OC(Cc1cccnc1F)(Cn1cncn1)C1(Cl)CC1` (racemic) [XXI-56], the LogP (pH 2.7) was 1.64^[a].

Regarding `Cc1ccnc(CC(O)(Cn2cncn2)C2(Cl)CC2)c1` (racemic) [XXI-57], the LogP (pH 2.7) is 0.52^[a].

Regarding `OC(Cc1ccc(Cl)nc1Cl)(Cn1cncn1)C1(Cl)CC1` (racemic) [XXI-58], the LogP (pH 2.7) was 2.55^[a].

`OC(Cc1nccnc1I)(Cn1cncn1)C1(Cl)CC1` (racemic) [XXI-59]: the LogP (pH 2.7) was 2.07^[a].

In the case of `OC(Cc1cc(Oc2ccc(Cl)cc2)nnc1Cl)(Cn1cncn1)C1(Cl)CC1` (racemic) [XXI-60], the LogP (pH 2.7) is 3.08^[a].

In the case of `OC(Cc1cncc(Oc2ccc(Cl)cc2)n1)(Cn1cncn1)C1(Cl)CC1` (racemic) [XXI-61], the LogP (pH 2.7) was 2.88^[a].

In the case of `OC(Cc1ncnc(Cl)c1Cl)(Cn1cncn1)C1(Cl)CC1` (racemic) [XXI-62], the LogP (pH 2.7) was 2.28^[a].

As for `OC(Cc1cc(Cl)ncc1Cl)(Cn1cncn1)C1(Cl)CC1` (racemic) [XXI-63], the LogP (pH 2.7) was 2.53^[a].

On to `OC(Cc1ccnc(Cl)c1F)(Cn1cncn1)c1cccnc1Cl` (racemic) [XXI-64], for which the LogP (pH 2.7) was 1.54^[a].

For the compound `OC(Cc1ccnc(Cl)c1F)(Cn1cncn1)C1(Cl)CC1` (racemic) [XXI-65], where the note is “pH 2.7”, the LogP is 2.02^[a].

`CC(CF)(CF)C(O)(Cc1ccnc(Cl)c1F)Cn1cncn1` (racemic) [XXI-66]: under “pH 2.7”, the LogP is 1.87^[a].

For the compound `OC(Cc1nc(Cl)ccc1Cl)(Cn1cncn1)C1(Cl)CC1` (racemic) [XXI-101], the LogP (pH 2.7) was 2.73^[a].

Take `OC(Cc1ncc(Cl)cc1Cl)(Cn1cncn1)C1(Cl)CC1` (racemic) [XXI-102]: where the note is “pH 2.7”, the LogP is 2.88^[a].

Turning to `CC(C)(C)C(O)(Cc1ccncc1F)Cn1cncn1` (racemic) [XXI-103], the LogP (pH 2.7) is 1.41^[a].

For `CCC(C)(C)C(O)(Cc1ccncc1F)Cn1cncn1` (racemic) [XXI-104], the LogP (pH 2.7) is 1.73^[a].

On to `CC(C)(C)C(O)(Cc1ccc2ccccc2n1)Cn1cncn1` (racemic) [XXI-105], for which the LogP (pH 2.7) was 1.51^[a].

Regarding `CC(C)(C)C(O)(Cc1cc(Cl)nc(Cl)c1)Cn1cncn1` (racemic) [XXI-106], the LogP (pH 2.7) was 2.64^[a].

`CC(C)(C)C(O)(Cc1ccnc2ccccc12)Cn1cncn1` (racemic) [XXI-107]: the LogP (pH 2.7) was 1.17^[a].

Consider `CC(C)(C)C(O)(Cc1cc(Cl)cc(Cl)n1)Cn1cncn1` (racemic) [XXI-108], for which, for the setting “pH 2.7”, the LogP was 2.86^[a].

`CC(C)(C)C(O)(Cc1ccc(Cl)c(Cl)n1)Cn1cncn1` (racemic) [XXI-109]: the LogP (pH 2.7) is 2.78^[a].

For `CC(C)(C)C(O)(Cc1cccc(Cl)n1)Cn1cncn1` (racemic) [XXI-110], where the note is “pH 2.7”, the LogP was 2.30^[a].

For the compound `CCC(C)(C)C(O)(Cc1ccnc(Cl)c1)Cn1cncn1` (racemic) [XXI-111], the LogP (pH 2.7) is 2.27^[a].

As to `CC(C)(C)C(O)(Cc1ccnc(Cl)c1)Cn1cncn1` (racemic) [XXI-112], the LogP (pH 2.7) was 1.93^[a].

Regarding `CC(C)(C)C(O)(Cc1cc(Cl)ncc1F)Cn1cncn1` (racemic) [XXI-113], the LogP (pH 2.7) is 2.16^[a].

In the case of `CC(C)(C)C(O)(Cc1nccnc1Cl)Cn1cncn1` (racemic) [XXI-115], where the note is “pH 2.7”, the LogP is 2.01^[a].

On to `Cc1ncc(CC(O)(Cn2cncn2)C(C)(C)C)nc1Cl` (racemic) [XXI-116], for which the LogP (pH 2.7) is 2.10^[a].

Consider `CC(C)(C)C(O)(Cc1cnccn1)Cn1cncn1` (racemic) [XXI-118], for which the LogP (pH 2.7) was 1.39^[a].

Consider `CC(C)(C)C(O)(Cc1cc(Cl)ccn1)Cn1cncn1` (racemic) [XXI-119], for which the LogP (pH 2.7) was 1.87^[a].

Turning to `Cc1cccc(CC(O)(Cn2cncn2)C(C)(C)C)n1` (racemic) [XXI-120], under “pH 2.7”, the LogP was 0.63^[a].

Turning to `CCOC(=O)OC(Cc1cccnc1Cl)(Cn1cncn1)C(C)(C)C` (racemic) [XXI-121], the LogP is 2.67^[a] (pH 2.7) and 2.56^[b]; (pH 7.8).

Consider `COC(C)(C)C(O)(Cc1ccncc1Cl)Cn1cncn1` (racemic) [XXI-123], for which the LogP (pH 2.7) is 1.48^[a].

As for `CC(C)(C)C(O)(Cc1ccnc(Cl)c1F)Cn1cncn1` (racemic) [XXI-124], the LogP (pH 2.7) was 2.16^[a].

Consider `CC(C)(C)C(O)(Cc1c(Cl)cncc1Cl)Cn1cncn1` (racemic) [XXI-125], for which the LogP (pH 2.7) is 2.34^[a].

Turning to `CC(C)(C)C(O)(Cc1cc(F)ncc1Cl)Cn1cncn1` (racemic) [XXI-126], the LogP (pH 2.7) is 2.39^[a].

For `OC(Cc1ccncc1Cl)(CC1CC1)Cn1cncn1` (racemic) [XXI-127], the LogP (pH 2.7) was 1.43^[a].

Regarding `CC(C)CCC(O)(Cc1ccncc1Cl)Cn1cncn1` (racemic) [XXI-128], the LogP (pH 2.7) was 2.00^[a].

For the compound `CCOC(C)(C)C(O)(Cc1ccncc1Cl)Cn1cncn1` (racemic) [XXI-129], the LogP is, setting by setting: (pH 2.7) 1.90^[a]; (pH 7.8) 2.04^[b];.

On to `CC(C)(C)C(O)(Cc1nc(Cl)ccc1Cl)Cn1cncn1` (racemic) [XXI-130], for which the LogP (pH 2.7) is 2.82^[a].

As to `CC(C)(C)C(O)(Cc1cccnc1Cl)Cn1ncnc1S` (centres unmarked) [Example I-1], the LogP (pH 2.7) was 2.31^[a].

On to `CC(C)(C)C(O)(Cc1ccncc1Cl)Cn1ncnc1S` (centres unmarked) [Example I-2], for which, under “pH 2.7”, the LogP is 2.14^[a].

`OC(Cc1cccnc1Cl)(Cn1ncnc1S)C1(Cl)CC1` (centres unmarked) [Example I-4]: the LogP (pH 2.7) was 2.15^[a].

`CC(C)(C)C(O)(Cc1cnc2ccccc2c1)Cn1ncnc1S` (centres unmarked) [Example I-5]: the LogP (pH 2.7) was 1.58^[a].

The record behind these values is patent US9550752B2, “Triazolinthione derivatives” (priority 2013, dated 2017).
